Consider 7 molecules from patent US12605446B2, “PSMA-targeted immunotherapies for cancers” (THE METHODIST HOSPITAL, priority 2020, dated 2026).

Test [1] deals with PSMA expression in LNCaP cells. In words: PSMA expression after antiandrogen or androgen treatment, LNCaP. It counts as cell-based.
Test [2] relates to PSMA expression in VCaP cells. In words: PSMA expression after antiandrogen or androgen treatment, VCaP. Format: cell-based.
Test [3] concerns PSMA-positive LNCaP cells. Nature of the test: Flow cytometric binding of anti-PSMA mAbs to prostate cancer cells. The following applies: mixed PC3 and LNCaP cells, 20 μg antibody, FITC anti-mouse IgG secondary antibody. The protocol:
PC3 cells and […] cells are mixed and incubated with 20 μg of J591, our home-made mAb #1352, or […] as a negative control. Next, the cells were incubated with FITC anti-mouse IgG secondary antibody (Biolegend, cat #406001), followed by flow cytometric analysis.
(A2). Development of anti-PSMA mAbs and construction of PSMA-CARs. The process of PSMA-CAR T cell therapy development is shown in the flowchart (FIG. 13A). PSMA extracellular domain was produced in baculovirus-insect cell expression system as reported. Purified recombinant PSMA protein was used to immunized BALB/c mice. Out of 38 ELISA-positive hybridomas, seven were confirmed by flow cytometry for their antibody-specific binding to PSMA-positive LNCaP and VCaP cells, but not to PSMA-negative PC3 cells.

Test [4] relates to PSMA-positive prostate cancer cell lines LNCaP and VCaP. Nature of the test: Murine FCγRIII ADCC reporter bioassay. The following applies: in vitro ADCC assay. Format: cell-based.

On to `C[C@]1(O)CC[C@H]2[C@@H]3CCC4=CC(=O)CCC4=C3C=C[C@@]21C` [R1881], for which the “PSMA mRNA levels” value in test [1] (10 nM R1881) and in test [2] (10 nM R1881) was “reduced” each time.
With `CNC(=O)c1ccc(N2C(=S)N(c3ccc(C#N)c(C(F)(F)F)c3)C(=O)C2(C)C)cc1F` [enzalutamide], the “PSMA mRNA levels” value is reported as “increased” in test [1] (10 μM enzalutamide, 48 hours) and “increased” in test [2] (10 μM enzalutamide, 48 hours). Besides, the PSMA protein levels entry in test [1] (Enzalutamide, 72 hrs) is listed as “increased”; in test [2] (Enzalutamide, 72 hrs), “increased”.

B1: #1352: anti-PSMA mouse monoclonal antibody of hybridoma #1352; VH SEQ ID NO: 24, VL SEQ ID NO: 26 (antibody, V domains shown)
VH: VKLQQSGPELEKPGASVKISCKASGYSFTGYNVNWVKQSNGKSLEWIGNIDPYHGGTTYNQKFEAKATLTVDKSSSTAYMQLKSLTSEDSAVYYCARSSRFDYWGQGTTLTVSS
VL: DIVMTQSHKFMSTSVGDRVNITCKASQDVGTAVAWYQQKPGQSPKFLIYWASTRHTGVPDRFTGSGSGTDFTLTISNVQSEDLADYFCHQYTSYPFTFGSGTKLEMKR
In the case of B1, the “binding to LNCaP cells by flow cytometry” value in test [3] is listed as “detected as the FITC positive cells”. In addition, in test [4], the “induction of ADCC activity” value was “most potent”.

B2: #219: anti-PSMA mouse monoclonal antibody of hybridoma #219; VH SEQ ID NO: 12, VL SEQ ID NO: 14 (antibody, V domains shown)
VH: VQLQQSGPELEKPGASVKMSCKASGYSFTGYNVNWVRQNNGKSLEWIGNIDPLHGGTTYNQKFKAKATLTVDRSSSTAYLQLKNLTSEDSAVYYCARSSRFDYWGQGTTLTVSS
VL: DIVMTQSHKFMSTSVGDRVNITCKASQDVGTAVAWYQQKPGQSPKLLIYWASTRHTGVPDRFTGSGSGTDFTLTISNVQSEDLADYFCHQFTSYPFTFGSGTSLEMKR
For B2, in test [3], the “binding to LNCaP cells by flow cytometry” value is listed as “bind to LNCaP cells with high affinity”.

B3: #1377: anti-PSMA mouse monoclonal antibody of hybridoma #1377; VH SEQ ID NO: 16, VL SEQ ID NO: 18 (antibody, V domains shown)
VH: VQLQQPGAALVRPGASVRLSCKASGYSFTYYWMNWVMQRPGQGLEWIGMIHPSDSETRLSQKFRDKATLTVDKSSSTVYMQLNSPTSDDSAVYYCARDGNFPYYALDYWGQGTSVTVSS
VL: DVVLTQAPLSLPVSLGDQASISCRSSQSLEYSNGNTYLHWYLQKPGQSPELLIYTVSNRFSGVPDRFSGSGSGTDFTLKIHRVEAEDLGVYFCSQSTHVPTFGGGTKLEIKR
Turning to B3, the “binding to LNCaP cells by flow cytometry” value in test [3] was “bind to LNCaP cells with high affinity”.

B4: #1207: anti-PSMA mouse monoclonal antibody of hybridoma #1207; VH SEQ ID NO: 28, VL SEQ ID NO: 30 (antibody, V domains shown)
VH: VKLQQSGPGLVKPSQSLSLTCAVTGYSITSDYAWNWIRKFPGNKLEWMGYISYSGRTTYNPSLESRISITRDTSKNQFFLQLNSVTTEDTATYYCARCYYGSSSRWYGMDYWGRGTSVAVSS
VL: IVLTQSPAIMSASPGVKVTMTCRASSSVDSSYLHWYQQKSGASPQVWIYSTSNLASGVPARFSGSGSGTSYSLTISSVEAEDAATYYCQQYSGYPLTFGGGTKLEIKR
With B4, in test [3], the “binding to LNCaP cells by flow cytometry” value is “bind to LNCaP cells with high affinity”.

B5: #1366: anti-PSMA mouse monoclonal antibody of hybridoma #1366; VH SEQ ID NO: 20, VL SEQ ID NO: 22 (antibody, V domains shown)
VH: VKLQESGPGLVAPSQSLSITCTVSGFSLTDYGVSWIRQPPGKGLEWLGVIWSDGNTYYNSPLKSRLSINKDNSKSQVFLKMNSLQTDDSAMYYCARHKVYTMDYWGQGTSVTVSS
VL: TVLTQSPAIMSASPGEKVTMTCRASSSVSSSYLHWYQQKSSASPKLWIYRTSNLASGVPARFSGSGSGTSYSLTISSLEAEDAATYYCQQYSGYPLTFGAGTKLELKR
Consider B5, for which the “binding to LNCaP cells by flow cytometry” value in test [3] is “bind to LNCaP cells with high affinity”.
